Patent publication US8618082B2, “Lupeol anti-tumor agent and uses thereof” (Wisconsin Alumni Research Foundation, priority 2004, dated 2013)

Experiments:
CD-1 mouse skin = assay: TPA-induced epidermal hyperplasia (hematoxylin and eosin histology); assay type: in vivo
Method: FIG. 2. Inhibitory effect of Lupeol on TPA-induced hyperplasia in CD-1 mice: 24 and 48 h after treatment, the animals were sacrificed; skin biopsies were processed for hematoxylin and eosin staining. Representative pictures are shown.
The effect of topical application of Lupeol on TPA-mediated induction of epidermal hyperplasia was then assessed.
The animals were shaved on the dorsal side of the skin, divided into four groups and treated topically on the shaved area with either 0.4 ml vehicle (acetone), or TPA (3.2 nmol/0.4 ml acetone/animal, v/v), or Lupeol (1 or 2 mg/0.2 ml acetone/animal, w/v) followed 30 min later with TPA (3.2 nmol/0.2 ml acetone/animal). Animals were sacrificed at different times point i.e. 6, 12, 24 and 48 h post TPA treatment. The epidermis was separated from the whole skin and homogenized in 0.1 M Tris-HCl buffer (pH 7.2) using a Polytron tissue homogenizer (Brinkmann Instruments, Westbury, N.Y., USA) at 100,000×g supernatant, and microsomal fractions were prepared as described earlier (Katiyar and Mukhtar, 1997). […]
To assess the inhibitory effect of pre-application of Lupeol on TPA-induced edema, 1 cm-diameter punches of skin from vehicle-, Lupeol-, TPA- or Lupeol- and TPA-treated mice were removed, made free of fat pads, and weighed immediately. After drying for 24 h at 50° C., the skin punches were reweighed, and the loss of water content was determined. […]

Akt = assay: TPA-induced phosphorylation of Akt at Thr308 (western blot); assay type: in vivo, mouse
Method: FIG. 5. Inhibitory effect of Lupeol on TPA-induced activation of PI3K and phosphorylation of Akt in CD-1 mice: At different times after treatment, the animals were sacrificed, epidermal protein lysate was prepared, and PI3K and phosphorylated (Thr^308) Akt and total Akt protein expression were determined. The immunoblots shown here are representative of three independent experiments with similar results. The values above each lane indicate relative density of the band normalized to β-actin.
The animals were shaved on the dorsal side of the skin, divided into four groups and treated topically on the shaved area with either 0.4 ml vehicle (acetone), or TPA (3.2 nmol/0.4 ml acetone/animal, v/v), or Lupeol (1 or 2 mg/0.2 ml acetone/animal, w/v) followed 30 min later with TPA (3.2 nmol/0.2 ml acetone/animal). Animals were sacrificed at different times point i.e. 6, 12, 24 and 48 h post TPA treatment. […]
Epidermis from the whole skin was separated as described earlier (Katiyar et al., 1999) and was homogenized in ice-cold lysis buffer [50 mM Tris-HCl, 150 mM NaCl, 1 mM EGTA, 1 mM EDTA, 20 mM NaF, 100 mM Na3VO4, 0.5% NP-40, 1% Triton X-100, 1 mM PMSF (pH 7.4)] with freshly added protease inhibitor cocktail, Protease Inhibitor Cocktail Set III (Calbiochem, La Jolla, Calif., USA). […] The protein content in the lysates was measured by DC BioRad assay (BioRad Laboratories, Hercules, Calif.) as per the manufacturer's protocol.
For western blot analysis, 40 μg of the protein was resolved over 8-12% polyacrylamide gels and transferred to a nitrocellulose membrane. […] This was followed by incubation with anti-mouse or anti-rabbit secondary antibody horse-radish peroxidase (Amersham Life Sciences, Inc., USA) for 1 h and then washed several times and detected by chemiluminescence ECL kit, (Amersham Life Sciences, Inc., USA) and autoradiography using XAR-5 film obtained from Eastman Kodak Co. (Rochester, N.Y., USA). […]

[1] = test system: Fas receptor in LNCaP cells; assay: Fas-siRNA silenced LNCaP cells: Fas expression and viability; assay type: cell-based, human; conditions: vs LNCaP cells with Fas receptor expression treated with Lupeol
Method: FIG. 17 depicts effect of Lupeol treatment on the growth of CaP cells transfected with Fas-siRNA and on the expression of Fas receptor in Fas-silenced CaP cells: (A). Cells were treated with specified concentrations of Lupeol alone, anti-Fas mAb or non-sense siRNA (negative control), Fas-siRNA, combination (Lupeol+Fas-siRNA) and combination (anti-Fas mAb+Fas-siRNA). The expression of Fas receptor protein in total cell lysate was determined by western blot analysis. Equal loading was confirmed by stripping immunoblots and reprobing them for β-actin. The immunoblots shown here are representative of three independent experiments with similar results. (B). Cells were treated with specified concentrations of Lupeol alone, anti-Fas mAb or non-sense siRNA (negative control), Fas-siRNA, combination (Lupeol+Fas-siRNA) and combination (anti-Fas mAb+Fas-siRNA). The values represent percent viable cells where vehicle-treated cells were regarded as 100% viable. Data represents mean value of percent viable cells±S.E of three independent experiments.
To determine whether Lupeol induces apoptosis of LNCaP cells selectively through Fas receptor, we used siRNA technology. siRNA's have the ability to silence […] any specific protein. We designed siRNA against Fas receptor protein and treated LNCaP cell with them.

AsPC-1 cells = assay: Apoptosis in AsPC-1 cells by fluorescence microscopy and flow cytometry; assay type: cell-based; conditions: flow cytometry and confocal microscopy
Description: FIG. 21 depicts Lupeol induced apoptosis in AsPC-1 cells as assessed by fluorescence microscopy (Upper Panel) and by flow cytometry (Bottom Panel). Upper panel of FIG. 21 contains the representative micrographs of AsPC-1 cells undergoing apoptosis induced by treatment with Lupeol as assessed by fluorescence microscopy (Upper panel).

C=C(C)[C@@H]1CC[C@]2(C)CC[C@]3(C)[C@H](CC[C@@H]4[C@@]5(C)CC[C@H](O)C(C)(C)[C@@H]5CC[C@]43C)[C@@H]12 [Lupeol, Lup-20(29)-en-3β-ol]
epidermal hyperplasia after Lupeol alone (CD-1 mouse skin; Lupeol alone): did not induce any epidermal hyperplasia | induction of epidermal hyperplasia by TPA (CD-1 mouse skin; topical Lupeol prior to TPA, 24 and 48 h): resulted in inhibition in the induction of epidermal hyperplasia | TPA-induced phosphorylation of Akt at Thr308 (Akt; pre-application of Lupeol prior to TPA): dose dependent inhibition | total epidermal Akt content (Akt; vs vehicle treated control): no change was observed | cell death of Fas-silenced LNCaP cells [1]: reduced cell death | induction of apoptosis in ASPC-1 cells (AsPC-1 cells): inducing apoptosis
